Series [1] deals with dorsum skin of hairless mouse. As to the kind of experiment: Test (A): skin permeability and ascorbic acid activity, H-type transverse diffusion cell. Type of series: in vitro ADME. The arrangement: key: When an ascorbic acid transmitted through the skin was identified, the evaluation was “+”; when an ascorbic acid was not detected, the evaluation was “−”; When a peak on the order of a trace was confirmed, the evaluation was […]. The following applies: abraded hairless mouse skin, 37° C., 30 to 120 minutes. On the procedure: The dorsum skin with corium of a 4- or 5-week-old hairless mouse was abraded and the skin abraded from the back of the hairless mouse was fixed in an H-type transverse diffusion cell. Then, 2 ml of DALBECCO PBS(−) was charged into the receiver-side cell and 2 ml of a specimen was charged into the donor-side cell. After incubation at 37° C. for from 30 to 120 minutes, 200 μl was sampled from the […] and 200 μl of DALBECCO PBS(−) was replenished. An ascorbic acid amount of the solution sampled was analyzed by the HPLC method described later in the Examples. When an ascorbic acid transmitted through the skin was detected and identified, the evaluation was “+” and when an ascorbic acid was not detected and identified, the evaluation was “−”. When a peak on the order of a trace was confirmed, the evaluation was “±”.
The dorsum skin with corium of a 4- or 5-week-old hairless mouse was abraded and the skin abraded from the back of the hairless mouse was fixed in an H-type transverse diffusion cell. Then, 2 ml of DALBECCO PBS(−) was charged into the receiver-side cell and 2 ml of a specimen was charged into the donor-side cell (in the case of an oil-soluble material, it was emulsion-dispersed in an ordinary manner by adding 2% of a surfactant Tween 80 (trademark)). After incubation at 37° C. for from 30 to 120 minutes, 200 μl was sampled from the […] and 200 μl of DALBECCO PBS (−) was replenished. An ascorbic acid amount of the solution sampled was analyzed by the HPLC method in the Examples. When an ascorbic acid transmitted through the skin was identified, the evaluation was “+” and when an ascorbic acid was not detected, the evaluation was “−” When a peak on the order of a trace was confirmed, the evaluation was […].

A short description of series [2]: Test (B): durability (activity duration) on storage. Type of series: physicochemical. The following applies: 0.5% in water (oil-soluble: emulsion with 2% Tween 80), stored at 40° C. for one month. The procedure: An ascorbic acid derivative was dissolved in water to have a concentration of 0.5% (in the case of an oil-soluble SF-621 US material, it was emulsion-dispersed in an ordinary manner by adding 2% of a surfactant Tween 80 (trademark)) and stored at 40° C. for one month. Then the residual amount of the derivative was measured by the HPLC method described later in the Examples. When the residual ratio was 90% or more, the evaluation was “+” and when it was less than 90%, the evaluation was “−”.
An ascorbic acid derivative was dissolved in water to have a concentration of 0.5% (in the case of an oil-soluble material, it was emulsion-dispersed in an ordinary manner by adding 2% of a surfactant Tween 80 (trademark)) and stored at 40° C. for one month. Then the residual amount of the derivative was measured by the HPLC method. When the residual ratio was 90% or more, the evaluation was “+” and when it was less than 90%, the evaluation was “−”.

Take “2-Palmitoyloxy-L-ascorbic acid-2-phosphate”: in series [1], the “Test (A): skin permeability and ascorbic acid activity (ascorbic acid transmitted through the skin, by HPLC)” value is “+”.

`Cc1c(C)c2c(c(C)c1OP(=O)(O)OC1=C(O)[C@@H]([C@@H](O)CO)OC1=O)CC[C@@](C)(CCC[C@H](C)CCC[C@H](C)CCCC(C)C)O2` [Ascorbic acid tocopherolphosphate diester, reference compound]: the “Test (A): skin permeability and ascorbic acid activity (ascorbic acid transmitted through the skin, by HPLC)” value in series [1] is listed as “−”. Further, the “Test (B): durability (residual ratio of the derivative by HPLC)” value in series [2] is recorded as “+ (When the residual ratio was 90% or more, the evaluation was “+”)”.

As to `O=C1O[C@H]([C@@H](O)CO)C(O)=C1O[C@H]1O[C@H](CO)[C@@H](O)[C@H](O)[C@H]1O` [L-Ascorbic acid-2-glucoside], the “Test (A): skin permeability and ascorbic acid activity (ascorbic acid transmitted through the skin, by HPLC)” value in series [1] is given as “+”. Moreover, in series [2], the “Test (B): durability (residual ratio of the derivative by HPLC)” value was “+ (When the residual ratio was 90% or more, the evaluation was “+”)”. `O=C1O[C@H]([C@@H](O)CO)C(O)=C1OP(=O)([O-])[O-].[Mg+2]` [Magnesium L-ascorbic acid-2-phosphate]: in series [2], the “Test (B): durability (residual ratio of the derivative by HPLC)” value is “+ (When the residual ratio was 90% or more, the evaluation was “+”)”. `O=C1O[C@H]([C@@H](O)CO)C(O)=C1OP(=O)([O-])[O-].[K+].[K+]` [Potassium L-ascorbic acid-2-phosphate]: the “Test (A): skin permeability and ascorbic acid activity (ascorbic acid transmitted through the skin, by HPLC)” value in series [1] was “+”. In addition, the “Test (B): durability (residual ratio of the derivative by HPLC)” value in series [2] was “+ (When the residual ratio was 90% or more, the evaluation was “+”)”. In the case of `O=C1O[C@H]([C@@H](O)CO)C(O)=C1OP(=O)([O-])[O-].[Na+].[Na+]` [Sodium L-ascorbic acid-2-phosphate], the “Test (A): skin permeability and ascorbic acid activity (ascorbic acid transmitted through the skin, by HPLC)” value in series [1] was “+”. In addition, the “Test (B): durability (residual ratio of the derivative by HPLC)” value in series [2] is on record as “+ (When the residual ratio was 90% or more, the evaluation was “+”)”.

As for `O=C1O[C@H]([C@@H](O)CO)C(O)=C1OS(=O)(=O)[O-].[Na+]` [Sodium L-ascorbic acid-2-sulfate, reference compound], the “Test (A): skin permeability and ascorbic acid activity (ascorbic acid transmitted through the skin, by HPLC)” value in series [1] was “−”. Moreover, in series [2], the “Test (B): durability (residual ratio of the derivative by HPLC)” value is “+ (When the residual ratio was 90% or more, the evaluation was “+”)”.

The record behind these values is patent publication US6437002B1, “Agent for preventing and treating skin diseases” (Showa Denko K.K., priority 1998, dated 2002).
